In publication PMC7724566, “Prospects for Clinical Development of Stat5 Inhibitor IST5-002: High Transcriptomic Specificity in Prostate Cancer and Low Toxicity In Vivo” (Cancers, 2020):

Legend:
Stat5 [1] = system: Stat5; parameters: method as in PMID 31548294; conditions: patients treated with enzalutamide (median 6 months); cited from earlier work
Stat5 [2] = test: Stat5 phosphorylation in K562 cells (immunoblot); type: cell-based, human; conditions: 4 days
Method: (§1) In order to evaluate whether the phosphate group of IST5 is critical for IST5 activity in cell-based assays, we compared the potency of IST5 (Figure 4A) to that of IST5-M (IST5 without the phosphate group) (Figure 4B) in inhibiting phosphorylation of Stat5 in PC and CML cells. CML (K562) cells and PC (CWR22Rv1) cells were cultured for 4 days with increasing concentrations of IST5 and IST5-M (Figure 4C,D). […] Collectively, these finding indicate that IST5 and IST5-M have similar efficacies in inhibiting phosphorylation of Stat5 in both CML and PC cells.
(§2) Figure 4 IST5 and the IST5-derivative lacking the phosphate group (IST5-M), both, inhibit Stat5 phosphorylation in CML and prostate cancer cell line with high efficacy. (A), chemical structure of IST5-002 (IST5). (B), chemical structure of IST5-M (IST5 without the phosphate group. (C), IST5 and IST5-M both inhibit Stat5 phosphorylation in CML cells (K562) with high efficacy. K562 cells were treated with IST5 and IST5-M for 4 days at the concentrations indicated. Whole cell lysates (WCL) were immunoblotted with anti-pYStat5 mAb, anti-Stat5 mAb and anti-actin mAb as loading control. (D), IST5 and IST5-M, both, decrease Stat5 phosphorylation in PC cells (CWR22Rv1). CWR22Rv1 cells were treated with increasing concentrations of IST5 and IST5-M for 4 days. Stat5 was immunoprecipitated (IP) followed by immunoblotting (WB) with anti-pYStat5 mAb and anti-Stat5 mAb. Whole cell lysates (WCL) were immunoblotted with anti-actin mAb as loading control.
(§3) Cell pellets were solubilized in the lysis buffer (10 mM Tris-HCl (pH 7.6), 5 mM EDTA, 50 mM sodium chloride, 30 mM sodium pyrophosphate, 50 mM sodium fluoride, 1 mM sodium orthovanadate, 1% Triton X-100, 1 mM phenylmethylsulfonyl fluoride, 5 µg/mL aprotinin, 1 µg/mL pepstatin A and 2 µg/mL leupeptin), and protein concentrations of clarified cell lysates were determined by a simplified Bradford method (Bio-Rad, Hercules, CA, USA). The whole cell lysates were immunoprecipitated with polyclonal antibodies (Table S1) followed by incubation with protein A-Sepharose beads (GE Healthcare, Chicago, IL, USA). The cell lysates and immunoprecipitated proteins were separated on 4–12% SDS-PAGE (Life Technologies, Brown Deer, WI, USA) and transferred electrophoretically to polyvinylidene fluoride membrane (Millipore). For immunoblotting, blocking buffer was tris-buffered saline and tween 20 (TBST, 0.15 M NaCl; 0.1% Tween 20; 50 mM Tris, pH 8.0) with 3% bovine serum albumin (BSA). The immunoreaction with the specific antibodies (Table S1) was detected by horseradish peroxidase-conjugated secondary antibodies followed by enhanced chemiluminescence (GE Healthcare).

Stat5 [3] = test: Stat5 phosphorylation in CWR22Rv1 cells (IP/immunoblot); type: cell-based, human; conditions: 4 days
Method: as §1, §2, §3

Stat5 [4] = molecular target: T1, Stat5 (Homo sapiens, UniProt P42229); test: Native-gel-based Stat5 dimerization assay, CWR22Rv1 cells; type: cell-based; conditions: 1 µM, 6 h, Prl (10 nM) stimulated CWR22Rv1 cells, STAT5A-eYFP
T1 construct: expressed in transfected cells; host or cells: CWR22Rv1
Source text: Having established that IST5 and IST5-M both interrupt phosphorylation of Stat5, we next investigated the potency of IST5-M vs. IST5 in suppressing dimerization of Stat5 in PC cells. First, we performed a native Polyacrylamide Gel Electrophoresis (PAGE) based Stat5 dimerization assay established originally by Fahrenkamp et al., where CWR22Rv1 cells were transfected with STAT5A-eYFP (Stat5 wild type), STAT5A-N642H-eYFP (constitutive activated Stat5 by N642H mutation, as a positive control) or STAT3-eYFP (Stat3 wild type, as a negative control) constructs for 3 days (Figure 5A). CWR22Rv1 cells were starved for 16 h, pretreated with vanadate (1 mM) for 2 h, followed by treatment with vehicle, IST5 or IST5-M (1 µM) for 6 h and stimulation with Prl (10 nM) for 1 h.
Figure 5 Both IST5 and IST5-M suppress dimerization of Stat5 with similar efficacies in prostate cancer cells. (A), IST5 and IST5-M inhibit equally potently dimerization of Stat5 in native-gel-based Stat5 dimerization assay. […] Dimerization of Stat5 was analyzed by detection of the eYFP fluorescence of the native Coomassie gel. […] (E), differences in posttranslational modifications were detected between native and recombinant STAT5a using mass spectrometry. Native STAT5a from CWR22Rv1 cells and recombinant STAT5a from E. coli were gel-purified, digested using trypsin, and analyzed by bottom-up mass spectrometry. […]

T1 sequence (P42229 whole entry, species assumed): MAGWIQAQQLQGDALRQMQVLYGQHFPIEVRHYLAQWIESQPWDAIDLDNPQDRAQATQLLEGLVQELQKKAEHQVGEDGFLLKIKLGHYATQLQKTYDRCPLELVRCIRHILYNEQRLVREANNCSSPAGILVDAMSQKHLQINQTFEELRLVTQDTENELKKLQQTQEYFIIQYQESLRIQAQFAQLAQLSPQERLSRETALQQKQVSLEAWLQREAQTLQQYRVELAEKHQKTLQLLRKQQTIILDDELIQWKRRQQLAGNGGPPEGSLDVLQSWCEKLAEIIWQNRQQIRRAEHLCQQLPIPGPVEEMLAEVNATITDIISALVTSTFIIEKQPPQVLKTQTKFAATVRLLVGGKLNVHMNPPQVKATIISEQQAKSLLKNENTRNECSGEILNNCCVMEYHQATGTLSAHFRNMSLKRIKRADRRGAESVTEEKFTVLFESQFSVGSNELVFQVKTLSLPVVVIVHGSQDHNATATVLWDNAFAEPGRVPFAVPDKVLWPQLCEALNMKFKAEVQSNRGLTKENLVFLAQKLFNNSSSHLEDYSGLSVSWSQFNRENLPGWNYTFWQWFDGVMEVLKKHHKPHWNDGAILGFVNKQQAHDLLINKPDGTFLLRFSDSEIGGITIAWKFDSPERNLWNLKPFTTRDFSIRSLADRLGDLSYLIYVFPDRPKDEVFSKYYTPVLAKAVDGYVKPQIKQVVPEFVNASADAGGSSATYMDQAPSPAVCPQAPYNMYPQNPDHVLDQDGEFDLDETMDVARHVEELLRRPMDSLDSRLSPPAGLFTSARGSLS

Compound	PC biopsies with significantly elevated levels of Stat5 activation (Stat5 [1])	inhibition of Stat5 phosphorylation (Stat5 [2]; 2 µM, K562 cells)	IC50 (Stat5 [2]; read-out: IC50, inhibition of Stat5 phosphorylation, K562 CML cells)	inhibition of Stat5 phosphorylation (Stat5 [3]; 2 µM, CWR22Rv1 cells)	IC50 (Stat5 [3]; read-out: IC50, inhibition of Stat5 phosphorylation, CWR22Rv1 PC cells)	inhibition of Stat5 dimerization (Stat5 [4])
CNC(=O)c1ccc(N2C(=S)N(c3ccc(C#N)c(C(F)(F)F)c3)C(=O)C2(C)C)cc1F [enzalutamide]	10/10					
OCC1OC(n2cnc3c(NCc4ccccc4)ncnc32)C(O)C1O (stereo not drawn) [IST5-M]		75–90%	~1100 nM	60–75%	~1300 nM	inhibited robustly
